From publication PMC6159918 (Peptides, 2018) come the findings set out here.

The subject of one test is GRPR. It counts as cell-based, human.
Test [1] addresses T1, human BRS-3-receptor (Homo sapiens, UniProt P32247).
T1 sequence (P32247 1-399): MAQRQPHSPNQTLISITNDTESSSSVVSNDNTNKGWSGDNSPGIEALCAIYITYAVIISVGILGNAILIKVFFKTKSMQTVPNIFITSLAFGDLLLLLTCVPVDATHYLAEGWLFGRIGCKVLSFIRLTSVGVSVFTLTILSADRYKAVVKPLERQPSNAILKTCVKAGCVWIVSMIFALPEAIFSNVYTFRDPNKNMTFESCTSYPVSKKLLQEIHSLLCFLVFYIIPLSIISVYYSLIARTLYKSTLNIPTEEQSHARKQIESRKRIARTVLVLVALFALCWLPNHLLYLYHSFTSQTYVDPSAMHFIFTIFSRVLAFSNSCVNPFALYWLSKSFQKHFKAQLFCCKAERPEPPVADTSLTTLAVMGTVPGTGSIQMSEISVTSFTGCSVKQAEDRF
The test is described as follows: [3H]-inositol phosphates. The conditions noted are these: for decrease in [3H]IP-production stimulated by MK-5046 / inhibition of [3H]IP-production caused by peptide #1: Bantag-1 100 nM; for decrease in [3H]IP-production stimulated by MK-5046: MK-5046 10 nM; for inhibition of [3H]IP-production caused by peptide #1: peptide #1 10 nM. It counts as cell-based.

In test [2] the test system is NMBR. As to the kind of experiment: [3H]IP production, NMBR agonist/antagonist. It counts as cell-based, human.
Test [3] deals with T1, human BRS-3-receptor. As to the kind of experiment: Cytosolic Ca2+. In kind it is cell-based.
Test [4] deals with NMBR (Homo sapiens, UniProt P28336). The test is described as follows: [3H]IP production, NMBR agonist/antagonist. The conditions noted are these: Peptide #1 (10 nM) + PD 1 μM; NCI-H727 (carcinoid); control 143 ± 21. In kind it is cell-based.
Chain of NMBR (Homo sapiens, UniProt P28336) (P28336 whole entry): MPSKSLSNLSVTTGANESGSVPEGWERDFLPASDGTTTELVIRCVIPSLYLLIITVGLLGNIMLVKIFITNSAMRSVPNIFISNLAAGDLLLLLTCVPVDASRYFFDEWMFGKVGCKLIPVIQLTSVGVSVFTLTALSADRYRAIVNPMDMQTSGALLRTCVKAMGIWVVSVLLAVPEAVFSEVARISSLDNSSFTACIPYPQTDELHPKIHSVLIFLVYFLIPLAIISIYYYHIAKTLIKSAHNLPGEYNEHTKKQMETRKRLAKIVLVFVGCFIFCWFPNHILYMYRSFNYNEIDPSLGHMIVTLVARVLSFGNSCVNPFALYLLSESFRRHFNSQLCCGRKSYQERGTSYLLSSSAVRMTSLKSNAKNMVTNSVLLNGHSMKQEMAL

Like-named read-outs stand apart in the source and are kept apart here.

gastrin-releasing peptide [GRP]: the “[3H]IP (DPM)” value came to 2519 ± 744 DPM with GRPR (GRP 100 nM, Balb-3T3 BRS-3 transfected, control 2487 ± 185); 881 ± 204 DPM with GRPR (GRP 100 nM, NCI-N417 (SCLC), control 660 ± 87); 724 ± 138 DPM in the test on GRPR (GRP 1 μM, NCI-N417 (SCLC), control 660 ± 87). In addition, in the test with GRPR (GRP at 10 nM and 100 nM), the “PLC activation in 4 cell-lines (NCI-H69, NCI-N417, NCI-H727, BRS-3/Balb)” value is on record as “activated PLC only in NCI-H727-cells”.
Regarding “[D-Tyr^6, β-Ala^11, Phe^13, Nle^14]Bn- (6–14) [Peptide #1]”, the “[3H]IP (DPM)” value on human BRS-3-receptor [1] (Peptide #1 10 nM, Balb-3T3 BRS-3 transfected, control 2487 ± 185) is reported as 16341 ± 1071 DPM; at human BRS-3-receptor [1] (Peptide #1 10 nM, NCI-H69 (SCLC), control 177 ± 27) it was 680 ± 73 DPM; on human BRS-3-receptor [1] (Peptide #1 10 nM, NCI-H727 (carcinoid), control 143 ± 21), 235 ± 25 DPM; on human BRS-3-receptor [1] (Peptide #1 10 nM, NCI-N417 (SCLC), control 660 ± 87), 2131 ± 244 DPM.
With neuromedin B [NMB], the “[3H]IP (DPM)” value is 2697 ± 720 DPM with NMBR [2] (NMB 100 nM, Balb-3T3 BRS-3 transfected, control 2487 ± 185); 186 ± 20 DPM in the test on NMBR [2] (NMB 100 nM, NCI-H69 (SCLC), control 177 ± 27); 706 ± 132 DPM with NMBR [2] (NMB 100 nM, NCI-N417 (SCLC), control 660 ± 87); 2652 ± 838 DPM with NMBR [2] (NMB 1 μM, Balb-3T3 BRS-3 transfected, control 2487 ± 185); 187 ± 37 DPM in the test on NMBR [2] (NMB 1 μM, NCI-H69 (SCLC), control 177 ± 27); 707 ± 137 DPM in the test with NMBR [2] (NMB 1 μM, NCI-N417 (SCLC), control 660 ± 87). For the same compound, in the test on NMBR [2] (NMB at 10 nM and 100 nM), the “PLC activation in 4 cell-lines (NCI-H69, NCI-N417, NCI-H727, BRS-3/Balb)” value was “activated PLC only in NCI-H727-cells”.
With “Boc-Phe-His-4-amino-5-cyclohexyl-2, 4, 5-trideoxypentonyl-Leu- (3-dimethylamino)benzyl amide-N-methyl ammonium trifluoroacetate [Bantag-1]”, the “inhibition of MK-5046 stimulated increases in cytosolic calcium” value on human BRS-3-receptor [3] (Bantag-1 1000 nM, two cell lines (NCI-H727, H782)) was “completely inhibited”. Moreover, on human BRS-3-receptor [3] (NCI-82, NCI-H460 and NCI-H727 cells), the “inhibition of MK-5046 stimulation of increases in (Ca2+)i” value is on record as “inhibited”. In addition, the “decrease in [3H]IP-production stimulated by MK-5046” value came to 93% at human BRS-3-receptor [1] (BRS-3/Balb-cells), 81% at human BRS-3-receptor [1] (NCI-H69), 75% at human BRS-3-receptor [1] (NCI-H727) and 99% on human BRS-3-receptor [1] (NCI-N417). Further, the “inhibition of [3H]IP-production caused by peptide #1” value against human BRS-3-receptor [1] (BRS-3/Balb-cells) is 82%; at human BRS-3-receptor [1] (NCI-H69-cells), 83%; against human BRS-3-receptor [1] (NCI-N417-cells), 68%. In addition, the “[3H]IP (DPM)” value on human BRS-3-receptor [1] (MK-5046 10 nM + Bantag 100 nM, Balb-3T3 BRS-3 transfected, control 2487 ± 185) amounted to 3697 ± 1064 DPM; on human BRS-3-receptor [1] (MK-5046 10 nM + Bantag 100 nM, NCI-H69 (SCLC), control 177 ± 27), 256 ± 56 DPM; at human BRS-3-receptor [1] (MK-5046 10 nM + Bantag 100 nM, NCI-H727 (carcinoid), control 143 ± 21) it was 215 ± 25 DPM; on human BRS-3-receptor [1] (MK-5046 10 nM + Bantag 100 nM, NCI-N417 (SCLC), control 660 ± 87), 678 ± 82 DPM; at human BRS-3-receptor [1] (Peptide #1 (10 nM) + Bantag 100 nM, NCI-H69 (SCLC), control 177 ± 27), 265 ± 35 DPM; at human BRS-3-receptor [1] (Peptide #1 (10 nM) + Bantag 100 nM, NCI-H727 (carcinoid), control 143 ± 21), 176 ± 27 DPM. For the same compound, the “[3H]IP (DPM)” value on human BRS-3-receptor [1] (Peptide #1 (10 nM) + Bantag 100 nM, NCI-N417 (SCLC), control 660 ± 87) was determined as 1125 ± 154 DPM.
Regarding [D-Phe^6]Bombesin-(6–13)-methyl ester, the “[3H]IP (DPM)” value in the test on GRPR (Peptide #1 (10 nM) + ME 1 μM, Balb-3T3 BRS-3 transfected, control 2487 ± 185) stood at 16107 ± 100 DPM; with GRPR (Peptide #1 (10 nM) + ME 1 μM, NCI-N417 (SCLC), control 660 ± 87) it was 2513 ± 662 DPM.
With `C[C@@](Cc1c[nH]c2ccccc12)(NC(=O)Nc1ccc([N+](=O)[O-])cc1)C(=O)NCC1(c2ccccn2)CCCCC1` [PD168368], the “[3H]IP (DPM)” value is reported as 157 ± 48 DPM at NMBR [4]; 15006 ± 769 DPM with NMBR [2] (Peptide #1 (10 nM) + PD 1 μM, Balb-3T3 BRS-3 transfected, control 2487 ± 185); 471 ± 121 DPM in the test with NMBR [2] (Peptide #1 (10 nM) + PD 1 μM, NCI-H69 (SCLC), control 177 ± 27); 2176 ± 518 DPM in the test with NMBR [2] (Peptide #1 (10 nM) + PD 1 μM, NCI-N417 (SCLC), control 660 ± 87).
